The text below walks through data of EPA's ToxValDB 9.5.

Structures are written as SMILES. Values joined by “and” are separate entries in the source; they are usually repeats but may differ in a detail not shown here. Equal values may be shown once.

Data set [1] concerns Rattus norvegicus. The note with it: oral, M/F.
Data set [2] relates to Homo sapiens. The note with it: clinical, oral, capsule.
For data set [3], the system named is Rattus norvegicus. As to conditions: oral.
Data set [4] concerns Rattus norvegicus. As to conditions: M/F; for NOAEL: chronic, duration: 2 years, oral, diet, neurological.
Data set [5] concerns Canidae. As to conditions: repeat dose other; inhalation; Dog Other.
The subject of another data set is Cavia sp. The note with it: repeat dose other; inhalation.
The subject of data set [6] is Rattus norvegicus. The note with it: for LD50: acute.
The test system of data set [7] is Homo sapiens. The note with it: clinical, oral.
Data set [8] deals with Homo sapiens. As to conditions: clinical; oral; diet; M; rbc che depression.
For data set [9], the system named is Oryctolagus sp. The note with it: acute; duration: 1 days; inhalation; M; New Zealand; neurological.
The subject of data set [10] is Homo sapiens. As to conditions: clinical; duration: 56 days; oral; capsule; M; neurological.
The test system of data set [11] is Rattus norvegicus. Nature of the data set: LD0; higher = less toxic. As to conditions: acute.
Data set [12] relates to Canidae. The note with it: subchronic; duration: 7 weeks; oral; gavage; M/F; Beagle.
For data set [13], the system named is Rattus norvegicus. The note with it: reproduction developmental; oral; M/F; Reduced body weight gain preceding pregnancy reduced body weight gain in offspring during weaning period.
The subject of data set [14] is Canidae. As to conditions: duration: 26 weeks, oral, capsule, M/F, Beagle, Liquid feces.
Data set [15] relates to Rattus norvegicus. As to conditions: duration: 7 days, oral, M, Reduced proportion of time spent in open field central zones, increased immobility time in the open field, reduced proportion of time spent ….
The test system of data set [16] is Canidae. The note with it: chronic; duration: 26 weeks; oral; capsule; M/F; Beagle; gastrointestinal.
Data set [17] relates to Oryctolagus sp. The note with it: developmental; duration: 12 days; oral; gavage; F; New Zealand; developmental.
[18] abbreviates: short-term, duration: 28 days, oral, diet, Fischer 344.

By NOAEL is commonly meant the highest tested level that showed no adverse finding. Turning to `CCOP(=S)(OCC)Oc1nc(Cl)c(Cl)cc1Cl` [Chlorpyrifos], the NOEL in the data set with Rattus norvegicus [1] (short-term, duration: 28 days, gavage, Wistar, Body Weight Changes: Weight gain decrease + Food Consumption: decrease + Blood Chemistry: T-Cho decrease TG decrease ALP increase Ch E …) stood at 0.1 mg/kg-day; with Homo sapiens [2] (duration: 20 days, Blood: Decreased cholinesterase activity), 0.03 mg/kg-day; in the data set with Rattus norvegicus [3] (Hershberger, duration: 10 days, gavage, Sprague-Dawley, inactive + Negative + Negative + anti-androgenic + negative), 2 mg/kg-day. In the data set on Rattus norvegicus [3] (uterotrophic, duration: 56 days, Active), this molecule gave an LEL of 0.1 mg/kg-day. In the data set on Rattus norvegicus [4] (Sherman Wistar), this molecule showed an NOAEL of 0.1 mg/kg-day.
In the case of `C#C` [Ethyne], the NOAEL was found to be 852000 mg/m3 with Mus musculus (repeat dose other, inhalation); 852000 mg/m3 in the data set with Canidae [5]; 852000 mg/m3 in the data set with Cavia sp.; 852000 mg/m3 in the data set on Rattus norvegicus [6] (repeat dose other, inhalation).
As for `Oc1ccc(O)cc1` [Hydroquinone], in the data set on Rattus norvegicus [1] (subchronic, duration: 13 weeks, gavage, Fischer 344, Deaths + Clinical Observation: Tremors Convulsions + Body Weight Changes: decrease + Absolute Organ Weight: Liver increase + Relative Organ …), the NOEL is 25 mg/kg-day. In addition, in the data set with Homo sapiens [7] (duration: 5 months, M/F, Hematologic, Urinary), the NOAEL worked out at 4.3 mg/kg-day.
By LOAEL is commonly meant the lowest dose or exposure tested at which an adverse effect was seen. Take `CCOC(=O)CC(SP(=S)(OC)OC)C(=O)OCC` (centres undefined) [Malathion]: the LEL with Homo sapiens [8] was 0.34 mg/kg-day. Moreover, the NOEL in the data set on Homo sapiens [8] was found to be 0.23 mg/kg-day; in the data set on Homo sapiens [2] (duration: 47 days, Blood: Hematological effects), 0.23 mg/kg-day. Besides, the figures for the NOAEL in the data set on Oryctolagus sp. [9], with Rattus norvegicus [4] (Fischer-344) and with Homo sapiens [10] were 65 mg/m3, 2 mg/kg-day and 0.23 mg/kg-day, respectively. Further, the LOAEL in the data set with Rattus norvegicus [4] (subchronic, duration: 13 weeks, inhalation, whole body, Sprague-Dawley, respiratory) turned out to be 100 mg/m3.
In the data set with Homo sapiens [7] (duration: 3 weeks, capsule, F), `[Cl-].[Rb+]` [Rubidium chloride (RbCl)] came in with an LOAEL of 5.3 mg/kg-day.
The term LD50 denotes the dose expected to kill half of the subjects tested. Regarding `C[S-].[Na+]` [Sodium thiomethoxide], the LD50 in the data set with Rattus norvegicus [6] (oral, Sprague-Dawley) is ≥ 75 mg/kg and ≤ 161 mg/kg; in the data set with Rattus norvegicus [6] (oral, gavage, Sprague-Dawley), 109 mg/kg and ≥ 84 mg/kg and ≤ 146 mg/kg. The LD0 in the data set with Rattus norvegicus [11] (dermal, semiocclusive, Sprague-Dawley) was at least 400 mg/kg.
`O=P(c1ccccc1)(c1ccccc1)c1ccccc1` [Triphenylphosphine oxide] had an LOAEL in the data set on Canidae [12] of 50 mg/kg-day.
`CCCCC(CC)COC(=O)c1ccc(C(=O)OCC(CC)CCCC)c(C(=O)OCC(CC)CCCC)c1` (centres undefined) [Tris(2-ethylhexyl) trimellitate]: the LD50 in the data set on Mus musculus (acute, oral, gavage) is over 3200 mg/kg; with Rattus norvegicus [6] (oral, gavage) it was over 3200 mg/kg; in the data set with Rattus norvegicus [6] (oral, gavage, Crj:CD), over 2000 mg/kg. Further, the NOAEL with Rattus norvegicus [6] (reproduction developmental, duration: 20 days, oral, gavage, Crj:CD, generation: F1) is 1000 mg/kg-day; with Rattus norvegicus [6] (reproduction developmental, duration: 20 days, oral, gavage, F, Crj:CD), 1000 mg/kg-day; with Rattus norvegicus [6] (reproduction developmental, duration: 20 days, oral, gavage, M, Crj:CD), 100 mg/kg-day; with Rattus norvegicus [6] (setting [18]) it was 184 mg/kg-day; with Rattus norvegicus [6] (short-term, duration: 28 days, oral, gavage, F, Crj:CD), over 1000 mg/kg-day; in the data set on Rattus norvegicus [6] (short-term, duration: 28 days, oral, gavage, M, Crj:CD) it was over 1000 mg/kg-day. In the data set with Rattus norvegicus [6] (setting [18]), this molecule yielded an LOAEL of 650 mg/kg-day. The molecule also returned an LD0 with Rattus norvegicus [11] (inhalation, Crj:CD) of 2600 mg/m3.
In turn, `CC1(C)C(C=C(Cl)C(F)(F)F)C1C(=O)OC(C#N)c1cccc(Oc2ccccc2)c1` (stereo not drawn) [alpha-Cyhalothrin] gave an LEL in the data set with Rattus norvegicus [13] of 1.5 mg/kg-day. The NOEL is 0.5 mg/kg-day in the data set on Rattus norvegicus [13], 1 mg/kg-day with Rattus norvegicus [15] (neurotoxicity) and 1 mg/kg-day with Rattus norvegicus [15] (short-term). The LOEL in the data set with Canidae [14] (chronic) and with Canidae [14] was 1 mg/kg-day each time. In the data set on Canidae [16], this molecule yielded an NOAEL of 1 mg/kg-day.
In the case of `Cc1ccc(O)cc1` [p-Cresol], the NOAEL came out at 1000 ppm with Rattus norvegicus [1] (short-term, duration: 28 days, diet, Fischer 344, Clinical Observation: Hunched posture Rough hair coat + Body Weight Changes: Mean body weight decrease + Food Consumption: decrease + …); 50 mg/kg-day with Rattus norvegicus [1] (subchronic, duration: 13 weeks, gavage, Sprague-Dawley, Deaths + Clinical Observation: Lethargy Tremors Convulsions Coma: + Body Weight Changes: Mean body weight decrease, Body weight gain …); 5 mg/kg-day in the data set with Oryctolagus sp. [17].
